The source made the active and inactive calls.
Legend:
[1] = target: Prothrombin (Homo sapiens, UniProt P00734); test: Thrombin 1536 HTS Dose Response Confirmation. [Related pubchem assays: 1046 (Thrombin 1536 HTS; hits were confirmed in this assay)]; assay type: functional
[2] = target: T1, Coagulation factor XII (Homo sapiens, UniProt P00748); assay type: functional;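 also: activated factor XIIa alpha cleaving a fluorogenic AMC peptide substrate; inhibitor potency from loss of enzyme activity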
T1 sequence (P00748 whole entry): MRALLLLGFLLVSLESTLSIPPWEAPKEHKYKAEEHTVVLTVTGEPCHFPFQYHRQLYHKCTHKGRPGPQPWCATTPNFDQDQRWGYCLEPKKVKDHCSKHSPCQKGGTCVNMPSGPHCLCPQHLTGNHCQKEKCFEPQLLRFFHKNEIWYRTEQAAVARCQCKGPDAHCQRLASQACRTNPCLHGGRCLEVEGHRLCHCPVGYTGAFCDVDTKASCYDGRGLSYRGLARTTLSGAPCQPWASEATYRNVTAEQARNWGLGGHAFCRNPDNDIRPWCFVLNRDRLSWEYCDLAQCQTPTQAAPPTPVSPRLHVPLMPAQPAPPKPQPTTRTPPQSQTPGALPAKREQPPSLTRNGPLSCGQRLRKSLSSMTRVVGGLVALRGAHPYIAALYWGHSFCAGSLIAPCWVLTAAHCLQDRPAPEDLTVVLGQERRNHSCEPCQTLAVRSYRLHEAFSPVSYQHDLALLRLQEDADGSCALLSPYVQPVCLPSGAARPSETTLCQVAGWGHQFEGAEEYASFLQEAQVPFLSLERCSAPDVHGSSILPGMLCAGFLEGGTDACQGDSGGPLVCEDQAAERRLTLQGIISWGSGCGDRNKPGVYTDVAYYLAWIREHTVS

[3] = target: T2, Mannose-6-phosphate isomerase (Homo sapiens, UniProt P34949); test: human PMI inhibitors, high substrate, primary screen, biochemical, fluorescence intensity, high mannose 6-phosphate (AID 1220)
T2 sequence (P34949 whole entry): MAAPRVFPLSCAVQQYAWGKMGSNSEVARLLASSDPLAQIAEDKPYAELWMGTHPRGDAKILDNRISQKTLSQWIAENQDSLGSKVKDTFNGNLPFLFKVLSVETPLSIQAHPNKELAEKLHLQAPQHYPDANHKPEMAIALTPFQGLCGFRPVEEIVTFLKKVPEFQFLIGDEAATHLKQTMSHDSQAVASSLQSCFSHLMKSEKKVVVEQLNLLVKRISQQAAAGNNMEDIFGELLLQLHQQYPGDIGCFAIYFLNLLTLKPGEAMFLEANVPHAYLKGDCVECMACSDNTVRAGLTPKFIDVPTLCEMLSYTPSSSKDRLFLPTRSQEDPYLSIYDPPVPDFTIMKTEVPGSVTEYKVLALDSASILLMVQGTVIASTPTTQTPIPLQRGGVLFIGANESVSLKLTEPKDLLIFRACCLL

[4] = target: Nonstructural protein 1 (Influenza A virus, UniProt Q194T2); assay type: functional, Influenza A virus (A/California/07/2009(H1N1))
[5] = NIH-3T3 fibroblast cytotoxicity, dose response, cytotoxicity control, cell-based, fluorescence, Alamar Blue, secondary assay (AID 2327); assay type: functional;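 also: NIH-3T3 mouse fibroblasts cultured with fluconazole at 8 µg/mL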
[6] = tested on: Streptococcus sp. 'group A'; test: growth inhibition of control SK(-) GAS strain, dose response, counter-screen for streptokinase expression inhibitor project, luminescence, kanamycin, BacTiterGlo, confirmation (AID 1900); assay type: functional, organism-based
[7] = C. albicans growth with fluconazole, confirmation, fluorescence, retest (AID 2467); assay type: functional, cell-based
[8] = inhibitors of intracellular T. cruzi replication, confirmation, NIH3T3 host cells, beta-gal luminescence (AID 2044); assay type: functional, cell-based;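 also: intracellular parasites grown in NIH/3T3 mouse fibroblasts as host cells; luminescent beta-galactosidase reporter signal from transgenic T. cruzi replicating inside host cells; inhibitors lower the luminescence signal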
[9] = cytotoxicity toward NIH3T3 fibroblasts, dose response, counter-screen, cell-based, ATP luminescence, mouse fibroblasts (AID 2010); assay type: functional;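 also: cells exposed to compound for about 90 hours before reading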
[10] = tested on: Streptococcus; test: Group A Streptococcus viability loss, dose response, counter-screen for streptokinase expression inhibitor project, luminescence, BacTiterGlo (AID 1915); assay type: functional, organism-based;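 also: potency for reduction of bacterial viability or growth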
[11] = target: T3, Short transient receptor potential channel 4 (Mus musculus, UniProt Q9QUQ5); test: mouse TRPC4 channel inhibitors, dose response, cell-based, HEK293 TRPC4/mu-opioid, Fluo-4 calcium (AID 434942); assay type: functional;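 also: potency of inhibitors blocking the TRPC4 calcium response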
T3 sequence (Q9QUQ5 whole entry): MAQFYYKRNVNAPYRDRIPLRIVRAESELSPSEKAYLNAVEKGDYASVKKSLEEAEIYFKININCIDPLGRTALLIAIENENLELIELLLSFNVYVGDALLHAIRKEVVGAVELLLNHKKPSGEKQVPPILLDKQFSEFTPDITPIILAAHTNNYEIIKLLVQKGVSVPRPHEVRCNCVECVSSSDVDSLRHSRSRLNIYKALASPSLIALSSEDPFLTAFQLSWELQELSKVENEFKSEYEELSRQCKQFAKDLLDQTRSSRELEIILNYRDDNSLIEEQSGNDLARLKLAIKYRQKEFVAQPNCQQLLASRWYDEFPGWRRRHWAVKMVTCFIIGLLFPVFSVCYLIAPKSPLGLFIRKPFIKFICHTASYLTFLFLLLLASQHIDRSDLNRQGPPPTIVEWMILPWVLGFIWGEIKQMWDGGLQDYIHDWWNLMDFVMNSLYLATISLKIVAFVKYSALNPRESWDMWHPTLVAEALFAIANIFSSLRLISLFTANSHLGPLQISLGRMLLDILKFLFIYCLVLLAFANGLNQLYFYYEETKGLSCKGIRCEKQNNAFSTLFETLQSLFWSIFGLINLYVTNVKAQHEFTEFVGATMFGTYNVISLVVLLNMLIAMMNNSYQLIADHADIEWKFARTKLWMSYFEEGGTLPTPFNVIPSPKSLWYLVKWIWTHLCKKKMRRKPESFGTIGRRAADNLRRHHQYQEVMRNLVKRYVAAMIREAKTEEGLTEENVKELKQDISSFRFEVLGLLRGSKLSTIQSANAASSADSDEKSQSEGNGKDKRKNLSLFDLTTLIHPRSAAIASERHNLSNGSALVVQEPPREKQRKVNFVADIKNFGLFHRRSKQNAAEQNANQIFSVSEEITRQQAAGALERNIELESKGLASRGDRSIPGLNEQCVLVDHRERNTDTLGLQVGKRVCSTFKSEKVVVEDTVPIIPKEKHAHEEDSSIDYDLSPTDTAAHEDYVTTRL

[12] = tested on: H9c2; test: cells; assay type: functional, cell-based; settings: Rattus norvegicus, H9c2, Myocardium;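 also: confirmatory concentration-response retest of ultra-high-throughput screening hits for modulation of myocardial damage; cell death induced by hydrogen peroxide oxidative stress; compound pretreatment for 60 min then peroxide exposure for 2 h; potency is for protecting the cells against peroxide damage rather than for killing them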
[13] = tested on: Vero; test: cells; assay type: functional; settings: Chlorocebus sabaeus
[14] = cells; assay type: functional, cell-based
[15] = cells; assay type: functional, cell-based; remark: listed apart in the source
[16] = target: Cytochrome P450 2C9 (Homo sapiens, UniProt P11712); settings: Potency
[17] = target: Large T antigen (Simian virus 40, UniProt P03070); assay type: functional, Betapolyomavirus macacae;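 also: Confirmatory-stage PubChem screen for compounds that inhibit SV40 T antigen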
[18] = target: FAD-linked sulfhydryl oxidase ALR (Homo sapiens, UniProt P55789); test: inhibitors of human ALR sulfhydryl oxidase, dose response, biochemical, H2O2 detection, luminescence, cherry-pick (AID 493248)
[19] = target: T4, Cytochrome P450 3A4 (Homo sapiens, UniProt P08684)
[20] = target: T5, Calpain-2 catalytic subunit (Sus scrofa, UniProt P43367); test: pig calpain II inhibitor potency, dose response, biochemical, fluorogenic peptide substrate (AID 1420); assay type: functional
T5 sequence (P43367 whole entry): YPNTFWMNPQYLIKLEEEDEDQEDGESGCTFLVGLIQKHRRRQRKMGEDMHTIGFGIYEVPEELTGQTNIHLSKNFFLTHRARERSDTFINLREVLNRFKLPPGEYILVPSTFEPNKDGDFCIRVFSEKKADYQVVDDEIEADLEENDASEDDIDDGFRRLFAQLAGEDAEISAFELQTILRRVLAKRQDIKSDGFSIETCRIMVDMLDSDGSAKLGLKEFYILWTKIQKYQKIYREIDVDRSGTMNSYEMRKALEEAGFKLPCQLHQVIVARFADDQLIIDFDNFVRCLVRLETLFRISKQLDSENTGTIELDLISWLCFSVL

[21] = Luminescence Cell-Based Dose Confirmation HTS to Identify Activators of 5'UTR Stem-Loop Driven Alpha-Synuclein mRNA Translation in H4 Neuroglioblastoma Cells. [Related pubchem assays: 1829 (Project Summary), 1814 (Primary HTS)]; assay type: functional
[22] = Luminescence Cell-Based Dose Response HTS to Identify Activators of Luciferase Translation or Activity in H4 […] Cells. [Related pubchem assays: 1829 (Project Summary), 1814 (Primary HTS)]; assay type: functional
[23] = tested on: H4; test: Luminescence Cell-Based Dose Response HTS to Identify Activators of 5'UTR Stem-Loop Driven Prion Protein mRNA Translation in H4 Neuroglioblastoma Cells. [Related pubchem assays: 1829 (Project Summary), 1814 (Primary HTS)]; assay type: functional; settings: Homo sapiens
[24] = cytotoxicity in HPDE-C7 cells, cell-based, fluorescence, HTS (AID 430); assay type: functional; settings: Homo sapiens
[25] = cytotoxicity in KRAS-transformed pancreatic duct cells, primary screen, cell-based, fluorescence, HTS (AID 431); assay type: functional; settings: Homo sapiens;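 also: cell line used: HPDE-C7K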
[26] = Luminescence Cell-Based Dose Retest to Confirm Inhibitors of Cancer Stem Cells. [Related pubchem assays (depositor defined):AID2717, AID2721]; assay type: functional; settings: Homo sapiens
[27] = target: T6, Ubiquitin-conjugating enzyme E2 N (Homo sapiens, UniProt P61088); assay type: functional;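 also: Dose-response confirmation in a TR-FRET assay detecting UBC13-driven polyubiquitin chain formation, inhibition measured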
T6 sequence (P61088 whole entry): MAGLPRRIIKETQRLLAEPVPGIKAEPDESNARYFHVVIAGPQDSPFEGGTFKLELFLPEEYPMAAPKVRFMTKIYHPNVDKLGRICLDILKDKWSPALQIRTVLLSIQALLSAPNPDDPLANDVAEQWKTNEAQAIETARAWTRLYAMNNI

[28] = target: T4, Cytochrome P450 3A4; settings: Potency

Chain of Cytochrome P450 2C9 (P11712 whole entry): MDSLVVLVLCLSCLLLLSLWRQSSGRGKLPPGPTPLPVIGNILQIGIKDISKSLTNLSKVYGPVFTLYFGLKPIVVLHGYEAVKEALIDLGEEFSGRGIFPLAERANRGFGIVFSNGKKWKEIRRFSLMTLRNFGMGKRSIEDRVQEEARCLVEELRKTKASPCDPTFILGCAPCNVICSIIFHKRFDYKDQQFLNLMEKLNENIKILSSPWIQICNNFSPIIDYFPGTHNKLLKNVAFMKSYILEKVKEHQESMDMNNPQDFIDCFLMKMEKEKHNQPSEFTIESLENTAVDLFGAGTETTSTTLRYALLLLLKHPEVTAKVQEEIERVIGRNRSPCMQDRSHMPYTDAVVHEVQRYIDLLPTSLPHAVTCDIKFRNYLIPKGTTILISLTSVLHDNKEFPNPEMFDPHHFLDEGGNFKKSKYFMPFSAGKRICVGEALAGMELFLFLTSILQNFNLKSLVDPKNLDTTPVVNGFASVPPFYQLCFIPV
Chain of Large T antigen (P03070 whole entry): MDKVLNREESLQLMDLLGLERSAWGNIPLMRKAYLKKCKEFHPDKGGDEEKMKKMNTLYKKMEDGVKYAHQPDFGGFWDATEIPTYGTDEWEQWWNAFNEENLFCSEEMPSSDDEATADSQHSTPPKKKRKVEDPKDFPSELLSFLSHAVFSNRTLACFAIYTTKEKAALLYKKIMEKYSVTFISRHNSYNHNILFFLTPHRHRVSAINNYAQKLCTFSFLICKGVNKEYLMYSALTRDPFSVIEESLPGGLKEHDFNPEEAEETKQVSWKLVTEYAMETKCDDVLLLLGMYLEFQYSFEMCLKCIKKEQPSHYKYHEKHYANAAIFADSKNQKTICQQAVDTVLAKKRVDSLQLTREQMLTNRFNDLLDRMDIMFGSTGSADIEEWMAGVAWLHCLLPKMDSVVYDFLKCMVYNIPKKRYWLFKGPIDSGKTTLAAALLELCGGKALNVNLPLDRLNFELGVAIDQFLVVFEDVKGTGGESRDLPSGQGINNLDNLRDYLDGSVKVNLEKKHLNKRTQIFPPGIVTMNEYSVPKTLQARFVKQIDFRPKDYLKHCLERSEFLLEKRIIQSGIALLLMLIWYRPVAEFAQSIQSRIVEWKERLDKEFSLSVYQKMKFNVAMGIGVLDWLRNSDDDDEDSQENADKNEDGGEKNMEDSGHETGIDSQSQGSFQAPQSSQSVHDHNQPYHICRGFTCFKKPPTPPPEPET
T4 sequence (P08684 whole entry): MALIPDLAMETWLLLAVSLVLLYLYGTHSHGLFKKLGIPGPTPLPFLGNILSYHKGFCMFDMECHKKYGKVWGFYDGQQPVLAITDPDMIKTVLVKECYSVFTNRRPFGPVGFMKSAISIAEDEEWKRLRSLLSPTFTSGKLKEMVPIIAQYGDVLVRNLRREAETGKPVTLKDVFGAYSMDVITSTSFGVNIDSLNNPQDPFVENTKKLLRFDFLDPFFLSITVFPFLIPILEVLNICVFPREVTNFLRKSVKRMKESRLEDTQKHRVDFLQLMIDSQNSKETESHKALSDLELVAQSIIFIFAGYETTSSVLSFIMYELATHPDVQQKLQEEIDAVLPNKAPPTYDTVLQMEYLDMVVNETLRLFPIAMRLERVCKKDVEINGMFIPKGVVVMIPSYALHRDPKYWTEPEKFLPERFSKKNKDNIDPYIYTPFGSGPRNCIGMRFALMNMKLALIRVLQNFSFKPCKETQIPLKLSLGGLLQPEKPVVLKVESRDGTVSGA
Chain of Nonstructural protein 1 (Q194T2 whole entry): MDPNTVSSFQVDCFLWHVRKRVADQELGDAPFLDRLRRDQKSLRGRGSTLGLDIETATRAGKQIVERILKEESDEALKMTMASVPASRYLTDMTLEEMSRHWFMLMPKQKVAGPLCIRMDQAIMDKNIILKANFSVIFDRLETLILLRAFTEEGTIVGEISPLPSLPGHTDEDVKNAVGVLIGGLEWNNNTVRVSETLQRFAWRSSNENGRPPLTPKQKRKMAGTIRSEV
Chain of FAD-linked sulfhydryl oxidase ALR (P55789 whole entry): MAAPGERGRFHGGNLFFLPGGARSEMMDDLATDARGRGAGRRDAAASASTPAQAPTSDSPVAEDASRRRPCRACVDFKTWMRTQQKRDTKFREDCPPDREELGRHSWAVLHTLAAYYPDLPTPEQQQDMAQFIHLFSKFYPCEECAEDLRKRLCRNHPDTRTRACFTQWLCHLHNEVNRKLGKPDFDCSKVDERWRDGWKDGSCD

## O=C(COC(=O)c1ccc(O)cc1)NCCCc1ccccc1
[1]
  IC50: > 50 µM (not active)
[2]
  IC50: > 50 µM (inactive)

## CC(C)(C)Nc1c([N+](=O)[O-])ccc2c1=NC1(CCCCC1)[N+]=2[O-]
[3]
  IC50: > 50 µM (not active)
[4]
  IC50: 18.1 µM (active)

## COc1cc(NS(=O)(=O)c2ccc3ccccc3c2)c2ncccc2c1
[5]
  EC50: > 160 µM (inactive)
[6]
  EC50: 0.412 µM (active)
[7]
  EC50: 3.98 µM (active)
[8]
  EC50: 0.342 µM (active)
[9]
  EC50: 1.09 µM (active)
[10]
  EC50: 7.28 µM (active)
[11]
  EC50: 0.668 µM (active)
[12]
  IC50: > 79 µM (inactive)
[13]
  CC50: > 25 µM (active)

## CC(C)C(NC(=O)c1ccc(C(C)(C)C)cc1)C(=O)NCC(c1ccccc1)N(C)C (stereo unspecified)
[11]
  EC50: 0.168 µM (active)

## Cc1onc(-c2c(F)cccc2Cl)c1C(=O)N(C)CC(=O)Nc1cccc(F)c1
[11]
  EC50: 2.11 µM (active)

## COc1cc2c(cc1OC)C(C)N(S(=O)(=O)c1ccc(Cl)nc1)CC2 (stereo unspecified)
[14]
  EC50: > 350 µM (not active)
[15]
  EC50: > 350 µM (not active)

## O=C(c1ccc(F)cc1)N(Cc1cccs1)C1CCS(=O)(=O)C1 (stereo unspecified)
[14]
  EC50: > 350 µM (not active)
[15]
  EC50: > 350 µM (not active)

## C=CCOC(=O)C(C(C)=O)C(NC(=O)OC)c1cccc(F)c1 (stereo unspecified)
[16]
  AC50: 1 µM (inconclusive)

## NCCC[C@@H](CC(=O)N[C@@H]1CCCC[C@H]1C(=O)N[C@H](CC(=O)N[C@@H](CCC(=O)O)CC(=O)O)Cc1c[nH]c2ccccc12)NC(=O)C[C@H](CO)NC(=O)[C@@H]1CCCC[C@H]1N
[16]
  AC50: 31.6 µM (inconclusive)

## COc1ccc(NC2CCCN(C(=O)c3cccc(C(F)(F)F)c3)C2)cc1OC (stereo unspecified)
[17]
  IC50: 44.1 µM (active)

## O=C1CCCC2=C1C(Cc1ccccc1)C1=C(CCCC1=O)O2
[14]
  EC50: > 350 µM (not active)
[15]
  EC50: > 350 µM (not active)

## N=C(NOC(=O)c1ccc(Cl)c([N+](=O)[O-])c1)c1ccccn1
[2]
  IC50: > 50 µM (inactive)

## CC1CN(c2nc3ccccn3c(=O)c2/C=C(\C#N)C(=O)N2CCOCC2)CC(C)O1 (stereo unspecified)
[14]
  EC50: > 350 µM (not active)
[15]
  EC50: > 350 µM (not active)

## N#Cc1ccsc1NC(=O)CN1CCN(c2ccc(O)cc2)CC1
[17]
  IC50: 6.44 µM (active)

## CCN(CC)c1ccc(N/C=C2/C(=O)NC(=O)N(c3ccccc3C)C2=O)cc1
[17]
  IC50: > 100 µM (active)
[18]
  AC50: 1.46 µM (active)

## N#Cc1ccc(C(=O)Nc2ccc(N3CCN(C(=O)c4ccco4)CC3)cc2)c(F)c1
[19]
  AC50: inconclusive

## Cc1cc(C)nc(N=C(N)N(Cc2ccccc2)Cc2ccccc2)n1
[20]
  IC50: > 50 µM (not active)
[11]
  EC50: 1.5 µM (active)

## COc1ccc(S(=O)(=O)N2CCCC2C(=O)Nn2cnnc2)cc1 (stereo unspecified)
[2]
  IC50: > 50 µM (inactive)

## C/C(N)=C(/C#N)C(=O)COC(=O)CC12CC3CC(CC(C3)C1)C2
[20]
  IC50: 12 µM (not active)
[11]
  EC50: 1.5 µM (active)

## CCOC(=O)/C(C#N)=C/N=c1/ccc(C)cn1C
[21]
  EC50: 53.5 µM (active)
[22]
  EC50: 23.8 µM (active)
[23]
  EC50: > 120 µM (not active)
[2]
  IC50: > 50 µM (inconclusive)

## Cc1nc2sccn2c(=O)c1CCN1CCC(=C(c2ccc(F)cc2)c2ccc(F)cc2)CC1 [RITANSERIN]
[24]
  EC50: > 20 µM (not active)
[25]
  EC50: > 20 µM (not active)
[26]
  AC50: 6.23 µM (active)
[27]
  IC50: > 20 µM (inactive)
[28]
  AC50: 20 µM (inconclusive)
[16]
  AC50: 25.1 µM (inconclusive)
